“And” between values parts separate entries of the source, which are not always exact repeats. Equal entries are not always repeated.
Tests used:
[1] = system: bleeding events in patients hospitalized for acute medical illness; assay: MAGELLAN (Study 1): safety, bleeding events and adverse events; format: in vivo, human; conditions: for Fatal bleeding events, number: Day 1 to 10; for Treatment-emergent fatal bleeding events, number: Day 1 to 35; for Pulmonary embolism confirmed (deaths), number: entire study duration; for Investigator-reported deaths, incidence / VTE-related deaths, incidence: entire study duration (Day 1 to 90); for Bleeding events that required blood transfusions of 2 units / Bleeding events that resulted in a fall of Hb to ≥2 g/dL / Investigator-reported TEAEs leading to permanent discontinuation of study drug: in vivo
Description: The safety component of Criteria for Evaluation was the primary safety endpoint of incidence of the composite of treatment-emergent major bleeding events and non-major clinically relevant bleeding events observed during treatment and not later than 2 days after the last intake of double-blind study drug.
The primary safety outcome of the study was the treatment-emergent clinically relevant bleeding events, which were a composite of treatment-emergent adjudicated major bleeding events and clinically relevant non-major bleeding events.
The safety analysis was performed on 7998 randomized subjects who received at least one dose of study drug, rivaroxaban (3997 subjects) or enoxaparin (4001 subjects).
The primary safety outcome of the study was the assessment of clinically relevant bleeding events, which are a composite of treatment-emergent adjudicated major bleeding events and clinically relevant non-major bleeding events.

[2] = system: coagulation parameters (PT, PiCT, D-dimer); assay: MAGELLAN (Study 1): pharmacodynamics (PT, PiCT, D-dimer); format: in vivo, human; conditions: for Prothrombin time, overall median: full profile sampling
Experimental: (§1) Full profile pharmacodynamics (PD) sampling was performed in parallel to the PK samples on Day 1 and Day 10. In addition, sparse PD sampling was performed in nearly all subjects at 5 predefined time points: prior to study drug administration, around the time of peak plasma concentrations (2 to 4 hours after intake of the rivaroxaban tablet or rivaroxaban placebo tablet) on the first, 10th and 35th day of study drug administration, and before study drug administration on Day 10.
Coagulation parameters assessed included international normalized ratio (INR), prothrombin time (PT), prothrombinase-induced clotting time (PiCT), and the fibrin degradation product, D-dimer. Pharmacodynamic parameters assessed included changes to baseline of the maximal effect (Emax) and changes to baseline at trough (Etrough).
as §1, with “Two sets of samples were evaluated for PD parameters: Full” for “Full”, “PD” for “pharmacodynamics (PD)”, “sampling” for “sampling was performed”, “approximately” for “around”

[3] = system: venous thromboembolism (VTE) in MAGELLAN subpopulation; assay: Retrospective analysis of MAGELLAN subpopulation (five bleeding risk factors excluded): efficacy; format: in vivo, human; conditions: for Primary efficacy endpoint outcome, incidence: Day 10, per-protocol analysis set; for Asymptomatic lower extremity proximal DVT, incidence / VTE-related death, incidence: Day 35
Description: (§2) Using key exclusion criteria from Study 2: MARINER to exclude subjects with a higher risk of bleeding, a subpopulation of Study 1: MAGELLAN was retrospectively analyzed to re-evaluate benefit-risk in this subpopulation, which included efficacy endpoints of symptomatic VTE and VTE-related death and safety endpoints of major bleeding events. The key exclusion criteria from Study 2: MARINER that were retrospectively applied to the Study 1: MAGELLAN population for this analysis included: active gastroduodenal ulcer within 3 months of randomization/currently symptomatic; any bleeding within 3 months prior to randomization or during index hospitalization; active cancer at randomization; medical history of severe bronchiectasis/pulmonary cavitation; or dual antiplatelet therapy at baseline. Subjects that met one or more of these criteria prior to or at randomization using standardized MedDRA queries or preferred terms of MedDRA version 13.1 based on data entered into the case report forms in the original MAGELLAN database were excluded from the subpopulation analysis.
(§3) The MAGELLAN study (Study 1) randomized 8,101 patients from 562 sites in 52 countries and the safety population of patients that received at least one dose of study medication was 7,998 patients. The five key risk factors for major bleeding events in MAGELLAN were identified using study data forms as described herein. With the retrospective use of these risk factors, 1,551 patients were excluded from MAGELLAN and the remaining 6,447 patients, approximately 80% of MAGELLAN, represented the subpopulation. Patients in both treatment groups had no differences in baseline characteristics, and had similar medical histories, with at least 99% of patients having complete immobility or decreased mobility and median total number of days in hospital of 10.

[4] = system: bleeding events in MAGELLAN subpopulation; assay: Retrospective analysis of MAGELLAN subpopulation: safety (bleeding); format: in vivo
Description: as §2, §3

[5] = system: bleeding events in high-risk, medically ill subjects; assay: MARINER (Study 2): safety, ISTH bleeding and adverse events
Description: The safety objectives were to compare rivaroxaban with placebo in the following bleeding outcomes in high-risk, medically ill subjects: • Major bleeding using validated International Society on Thrombosis and Haemostasis (ISTH) bleeding criteria. • Non-major clinically relevant (NMCR) bleeding. • Other bleeding.
Safety assessment was based on bleeding events classified by validated ISTH criteria as major bleeding (principal safety outcome), NMCR bleeding, or Other bleeding. […] The safety outcome of NMCR bleeding was defined as overt bleeding not meeting ISTH criteria for major bleeding, but associated with medical intervention, unscheduled contact (visit or telephone call) with a physician, (temporary) cessation of study treatment, or associated with discomfort for the subject such as pain or impairment of activities of daily life. […] Overall safety was also assessed.
The principal safety outcome was major bleeding based on validated ISTH criteria. Treatments were compared using the same statistical model (i.e., Cox proportional hazards model) as that for the primary efficacy outcome. The same analyses were used for NMCR bleeding. Safety analyses were based on the safety analysis set and on-treatment analysis phase. Bleeding events were analyzed based on time from randomization to the first occurrence.

[6] = rivaroxaban-enoxaparin phase (Day 1 to 10)
[7] = rivaroxaban-enoxaparin/placebo phase (Day 1 to 35)
[8] = rivaroxaban-placebo phase (Day 10 to 35)
[9] = acute respiratory insufficiency, Baseline
[10] = acute respiratory insufficiency, Day 1 peak
[11] = acute respiratory insufficiency, Day 10 peak
[12] = acute respiratory insufficiency, Day 10 trough
[13] = entire study population, Baseline
[14] = entire study population, Day 1 peak
[15] = entire study population, Day 10 peak
[16] = entire study population, Day 35 peak
[17] = post-discharge phase, entire population and subpopulation

Compound: O=C(NC[C@H]1CN(c2ccc(N3CCOCC3=O)cc2)C(=O)O1)c1ccc(Cl)s1 [Rivaroxaban, 5-chloro-N-({(5S)-2-oxo-3-[4-(3-oxo-4-morpholinyl)phenyl]-1,3,oxazolidin-5-yl}methyl)-2-thiophenecarboxamide]
- Fatal bleeding events, number ([1]; entire population): 5 cases
- Treatment-emergent fatal bleeding events, number [1]: 7 subjects
- Major bleeding events, incidence ([1]; Day 1 to Day 10): 0.6%
- Intracranial bleeding site (critical site bleeding), incidence ([1]; Day 1 to Day 35): 0.1%
- Investigator-reported SAEs, incidence ([1]; Day 1 to Day 35): 2.0%
- Investigator-reported TEAEs, incidence ([1]; Day 1 to Day 35): 12.5%
- Investigator-reported drug-related TEAEs, incidence ([1]; Day 1 to Day 35): 6.9%
- Major bleeding events, incidence ([1]; Day 1 to Day 35): 1.1%
- Major bleeding events, incidence ([1]; Day 10 to Day 35): 0.5%
- Clinically relevant non-major bleeding events, incidence ([1]; all phases of the study): 4.0%
- Major bleeding events, incidence ([1]; all phases of the study): 1.6%
- Minimal bleeding events, incidence ([1]; all phases of the study): 9.6%
- Major bleeding, RR vs enoxaparin-placebo ([1]; entire MAGELLAN population, through Day 35): 2.87
- Fatal bleeds, incidence ([1]; entire population, Day 10): 0.1%
- Major bleeding, relative risk ([1]; entire population, Day 10): 2.18
- Fatal bleeds, incidence ([1]; entire population, Day 35): 0.2%
- Pulmonary embolism confirmed (deaths), number [1]: 2 subjects
- Investigator-reported deaths, incidence [1]: 7.0%
- VTE-related deaths, incidence [1]: 1.0%
- Major bleeding events, incidence ([1]; follow-up phase): 0.6%
- Bleeding events that required blood transfusions of 2 units [1]: 0.6%
- Bleeding events that resulted in a fall of Hb to ≥2 g/dL [1]: 0.8%
- Investigator-reported TEAEs leading to permanent discontinuation of study drug [1]: 3.1%
- Clinically relevant bleeding events, incidence [1, 6]: 2.8%
- Relative risk, clinically relevant bleeding [1, 6]: 2.272
- Clinically relevant bleeding events, incidence [1, 7]: 4.1%
- Relative risk, clinically relevant bleeding [1, 7]: 2.46 and 2.455
- Clinically relevant bleeding events, incidence [1, 8]: 1.4%
- Relative risk, clinically relevant bleeding [1, 8]: 2.958
- Mean peak concentration expressed in IU/mL (PiCT two step) ([2]; Day 1): below the lower limit of quantitation
- Mean peak concentration of rivaroxaban (PiCT one step) ([2]; Day 1): 198.8 µg/L
- Mean peak concentration expressed in IU/mL (PiCT two step) ([2]; Day 10): below the lower limit of quantitation
- Mean peak concentration of rivaroxaban (PiCT one step) ([2]; Day 10): 202.78 µg/L
- Mean peak concentration of rivaroxaban (PiCT one step) ([2]; Day 35): 168 µg/L
- D-dimer, median ([2]; acute infectious disease, Baseline): 1.76 µg/mL
- D-dimer, median ([2]; acute infectious disease, Day 1 peak): 2.07 µg/mL
- D-dimer, median ([2]; acute infectious disease, Day 10 peak): 2.13 µg/mL
- D-dimer, median ([2]; acute infectious disease, Day 10 trough): 1.74 µg/mL
- D-dimer, median [2, 9]: 1.48 µg/mL
- D-dimer, median [2, 10]: 1.44 µg/mL
- D-dimer, median [2, 11]: 1.37 µg/mL
- D-dimer, median [2, 12]: 1.18 µg/mL
- D-dimer, median [2, 13]: 0.94 µg/mL
- D-dimer, median [2, 14]: 0.90 µg/mL
- D-dimer, median [2, 15]: 0.64 µg/mL
- D-dimer, median [2, 16]: 0.45 µg/mL
- Prothrombin time, overall median ([2]; peak Day 1): 23.5 s
- Prothrombin time, overall median ([2]; peak Day 10): 23.2 s
- Change in clotting time, PiCT two step ([2]; sparse sampling): No change
- Prothrombin time, median ([2]; sparse sampling, Baseline): 14.3 s
- Prolongation of PiCT one step assay ([2]; sparse sampling, Day 1): 14.6 s
- Prothrombin time, median ([2]; sparse sampling, Day 1 peak): 19.3 s
- Prolongation of PiCT one step assay ([2]; sparse sampling, Day 10): 13.1 s
- Prothrombin time, median ([2]; sparse sampling, Day 10 peak): 19.3 s
- Prothrombin time, median ([2]; sparse sampling, Day 35 peak): 18.6 s
- Primary efficacy endpoint, RR vs enoxaparin ([3]; Day 10, per-protocol): 0.820
- Primary efficacy endpoint outcome, incidence [3]: 2.4%
- Asymptomatic lower extremity proximal DVT, incidence [3]: 3.0%
- VTE-related death, incidence [3]: 0.6%
- Primary efficacy outcome, RR vs enoxaparin ([3]; Day 35, mITT): 0.68
- Primary efficacy outcome, incidence ([3]; Day 35, mITT): 3.9%
- Major bleeding, relative risk ([4]; human, in vivo, 10 day): 1.19
- Clinically relevant bleeding (major and NMCR), incidence ([4]; human, in vivo, 35 day): 3.5%
- Clinically relevant bleeding, RR vs enoxaparin ([4]; human, in vivo, 35 day): 2.35
- Major bleeding, RR vs enoxaparin-placebo ([4]; human, in vivo, 35 day): 1.48
- Major bleeding, incidence ([4]; human, in vivo, 35 day): 0.68%
- Fatal bleeds, number [4, 17]: 2
- Fatal bleeds, incidence ([4]; subpopulation, Day 10): less than 0.1%
- Fatal bleeds, number ([4]; subpopulation, Day 10): 1
- Fatal bleeds, incidence ([4]; subpopulation, Day 35): less than 0.1%
- Fatal bleeding, incidence ([5]; 10 mg dose stratum): 0.04%
- Fatal bleeding, incidence ([5]; on-treatment, safety analysis set): 0.03%
- AEs with outcome of death, n (%) ([5]; safety analysis set): 95 (1.6) %

Compound: Enoxaparin
- Fatal bleeding events, number ([1]; entire population): 1 cases
- Treatment-emergent fatal bleeding events, number [1]: 1 subjects
- Major bleeding events, incidence ([1]; Day 1 to Day 10): 0.3%
- Investigator-reported SAEs, incidence ([1]; Day 1 to Day 35): 0.8%
- Investigator-reported TEAEs, incidence ([1]; Day 1 to Day 35): 8.5%
- Investigator-reported drug-related TEAEs, incidence ([1]; Day 1 to Day 35): 4.2%
- Major bleeding events, incidence ([1]; Day 1 to Day 35): 0.4%
- Pulmonary bleeding site (critical site bleeding), incidence ([1]; Day 1 to Day 35): 0%
- Retroperitoneal bleeding site (critical site bleeding), incidence ([1]; Day 1 to Day 35): 0%
- Clinically relevant non-major bleeding events, incidence ([1]; all phases of the study): 2.1%
- Major bleeding events, incidence ([1]; all phases of the study): 0.9%
- Minimal bleeding events, incidence ([1]; all phases of the study): 8.2%
- Pulmonary embolism confirmed (deaths), number [1]: 1 subjects
- Investigator-reported deaths, incidence [1]: 6.5%
- VTE-related deaths, incidence [1]: 1.2%
- Major bleeding events, incidence ([1]; follow-up phase): 0.6%
- Bleeding events that required blood transfusions of 2 units [1]: 0.2%
- Bleeding events that resulted in a fall of Hb to ≥2 g/dL [1]: 0.2%
- Investigator-reported TEAEs leading to permanent discontinuation of study drug [1]: 1.5%
- Clinically relevant bleeding events, incidence [1, 6]: 1.2%
- Clinically relevant bleeding events, incidence [1, 7]: 1.7%
- Clinically relevant bleeding events, incidence [1, 8]: 0.5%
- Baseline value expressed in IU/mL (PiCT two step) ([2]; Day 1): below the lower limit of quantitation
- Mean peak concentration expressed in IU/mL (PiCT two step) ([2]; Day 1): 0.32 IU/mL
- Mean peak concentration expressed in IU/mL (PiCT two step) ([2]; Day 10): 0.31 IU/mL
- Trough concentration expressed in IU/mL (PiCT two step) ([2]; Day 10): 0.11 IU/mL
- D-dimer, median [2, 9]: 0.57 µg/mL
- D-dimer, median [2, 10]: 0.66 µg/mL
- D-dimer, median [2, 11]: 0.70 µg/mL
- D-dimer, median [2, 12]: 0.46 µg/mL
- D-dimer, median [2, 13]: 0.95 µg/mL
- D-dimer, median [2, 14]: 0.94 µg/mL
- D-dimer, median [2, 15]: 0.66 µg/mL
- D-dimer, median [2, 16]: 0.67 µg/mL
- Influence on prothrombin time ([2]; in vivo): no influence
- Change in clotting time, PiCT one step ([2]; sparse sampling): No change
- Prothrombin time, median ([2]; sparse sampling, Baseline): 14.4 s
- Prolongation of PiCT two step assay ([2]; sparse sampling, Day 1): 23.6 s
- Prothrombin time, median ([2]; sparse sampling, Day 1 peak): 14.8 s
- Prolongation of PiCT two step assay ([2]; sparse sampling, Day 10): 19.8 s
- Prothrombin time, median ([2]; sparse sampling, Day 10 peak): 14.2 s
- Prothrombin time, median ([2]; sparse sampling, Day 35 peak): 13.8 s
- Primary efficacy endpoint outcome, incidence [3]: 3.0%
- Asymptomatic lower extremity proximal DVT, incidence [3]: 4.4%
- VTE-related death, incidence [3]: 1.0%
- Primary efficacy outcome, incidence ([3]; Day 35, mITT): 5.7%
- Fatal bleeds, number [4, 17]: 0
- Fatal bleeds, number ([4]; subpopulation, Day 10): 1
- Clinically relevant bleeding (major and NMCR), incidence ([4]; subpopulation, Day 35): 1.5%
- Major bleeding, incidence ([4]; subpopulation, through Day 35): 0.47%

From patent US20200397795A1, “PROPHYLACTIC TREATMENT OF VENOUS THROMBOEMBOLISM” (JANSSEN PHARMACEUTICALS, INC., priority 2019, published 2020)
